Assay results as given in patent US20230233541A1, “SUBSTITUTED BENZAMIDES AS MODULATORS OF TREX1” (Constellation Pharmaceuticals, Inc., priority 2020, published 2023).

What was measured:
full length human TREX1 = molecular target: T1, full length human TREX1 (Homo sapiens, UniProt Q9NSU2); assay: TREX1 Biochemical Assay (fluorescence assay, degradation of dsDNA substrate); details: 150 pM TREX1, 60 nM dsDNA substrate, 25 minutes at room temperature; read-out: hTREX1 EC50
T1 construct: N-terminally His-Tev tagged full length human TREX1; His-Tev (His tag with TEV protease site) (N); made in house; host or cells: E. coli
T1 sequence (Q9NSU2 1-314): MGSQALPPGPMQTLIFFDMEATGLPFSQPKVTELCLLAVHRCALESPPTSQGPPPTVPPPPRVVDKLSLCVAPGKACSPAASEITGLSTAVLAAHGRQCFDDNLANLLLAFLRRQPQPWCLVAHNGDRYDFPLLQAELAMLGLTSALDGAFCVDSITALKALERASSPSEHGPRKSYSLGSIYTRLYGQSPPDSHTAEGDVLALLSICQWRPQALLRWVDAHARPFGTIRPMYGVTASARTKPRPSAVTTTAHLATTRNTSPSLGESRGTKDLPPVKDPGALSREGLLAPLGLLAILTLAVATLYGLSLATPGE
Method in brief: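 E. coli-expressed His-Tev-tagged full-length TREX1 (150 pM) with 60 nM quenched-fluorophore dsDNA in Tris pH 7.4, 150 mM NaCl, 100 mM MgCl2, 1% DMSO, 25 min room temperature, 10-point dose-response. EDTA stop; fluorescence 615 nm (ex 570 nm); IC50 from four-parameter fit against pre-quenched and no-inhibitor controls.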

[1] = molecular target: T2, human TREX2 (residues M44-A279) (Homo sapiens, UniProt Q9BQ50); assay: TREX2 Biochemical Assay (fluorescence assay, degradation of dsDNA substrate); details: 2.5 nM TREX2, 60 nM dsDNA substrate, 25 minutes at room temperature; read-out: hTREX2 EC50
T2 construct: human TREX2 (residues M44-A279, expressed in E. coli); His-Tev (His tag with TEV protease site) (N); made in house; host or cells: E. coli
T2 sequence (Q9BQ50 44-279 isoform Q9BQ50-1): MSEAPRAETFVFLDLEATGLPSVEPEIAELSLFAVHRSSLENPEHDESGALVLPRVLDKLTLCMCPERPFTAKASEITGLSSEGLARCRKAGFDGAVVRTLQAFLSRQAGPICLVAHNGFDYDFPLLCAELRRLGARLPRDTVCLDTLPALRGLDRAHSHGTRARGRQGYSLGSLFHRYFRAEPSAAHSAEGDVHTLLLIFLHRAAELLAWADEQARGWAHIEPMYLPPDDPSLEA
Method in brief: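 His-Tev-tagged human TREX2 (M44-A279, E. coli-expressed) at 2.5 nM final, with 60 nM TEX615/quencher-labelled dsDNA in pH 7.4 Tris buffer with MgCl2 and 1.0% DMSO, 10-point dose-response, 25 min at room temperature, then EDTA quench. Fluorescence read at 615 nm (ex 570 nm). IC50 from four-parameter fit against pre-quenched and no-inhibitor controls.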

| EC50 (full length human TREX1) [µM] | EC50 [1] [µM] | Compound |
| --- | --- | --- |
| < 0.1 | 1 to 10 | CC[C@@H](c1ccc2c(c1Cl)OCO2)N(Cc1ccc(C(=O)O)nc1)C(=O)c1cc(F)cc(F)c1 [Compound 230] |
| < 0.1 | 1 to 10 | CC[C@@H](c1cccc(OC)c1C(F)(F)F)N(Cc1ccc(C(=O)O)nc1)C(=O)c1cc(F)cc(F)c1 [Compound 197] |
| 1 to 10 | 10 to 100 | O=C(O)c1ccc(CN(Cc2ccccc2OC(F)(F)F)C(=O)c2cc(F)cc(F)c2)cn1 [Compound 199] |
| 0.1 to 1 | 10 to 100 | O=C(O)c1ccc(CN(Cc2cccc(Cl)c2Cl)C(=O)c2cc(F)cc(F)c2)c(O)n1 [Compound 247] |
| > 10 | 10 to 100 | NCC[C@H](c1cccc(Cl)c1Cl)N(Cc1cccnc1)C(=O)c1cc(F)cc(F)c1 [Compound 238] |
| < 0.1 | 1 to 10 | COc1nccc(CN(Cc2ccc(C(=O)O)nc2)C(=O)c2cc(F)cc(F)c2)c1Cl [Compound 188] |
| < 0.1 | 1 to 10 | O=C(O)c1ccc(CN(Cc2ccc3ncccc3c2Cl)C(=O)c2cc(F)cc(F)c2)cn1 [Compound 191] |
| > 10 | 10 to 100 | NCC[C@@H](c1cccc(Cl)c1Cl)N(Cc1cccnc1)C(=O)c1cc(F)cc(F)c1 [Compound 237] |
| < 0.1 | 10 to 100 | NCCC[C@@H](c1cccc(Cl)c1Cl)N(Cc1cccnc1)C(=O)c1cc(F)cc(F)c1 [Compound 248] |
| 0.1 to 1 | 10 to 100 | C[C@H](c1cccc(Cl)c1Cl)N(Cc1ccc(C(=O)O)nc1)C(=O)c1cc(F)cc(F)c1 [Compound 173] |
| 0.1 to 1 | 10 to 100 | O=C(c1cc(F)cc(F)c1)N(Cc1ccc(CCO)nc1)Cc1ccc(Cl)cc1Cl [Compound 218] |
| < 0.1 | 1 to 10 | O=C(c1cc(F)cc(F)c1)N(Cc1cccnc1)[C@H](CCO)c1ccc(Cl)cc1Cl [Compound 260] |
| < 0.1 | 1 to 10 | N#CC[C@H](c1cccc(Cl)c1Cl)N(Cc1cccnc1)C(=O)c1cc(F)cc(F)c1 [Compound 235] |
| < 0.1 | 1 to 10 | O=C(O)c1ccc(CN(Cc2c(Cl)cccc2Cl)C(=O)c2cc(F)cc(F)c2)cn1 [Compound 186] |
| > 10 | > 100 | N#Cc1ccccc1CN(Cc1ccc(C(=O)O)nc1)C(=O)c1cc(F)cc(F)c1 [Compound 192] |
| 0.1 to 1 | 1 to 10 | O=C(c1cc(F)cc(F)c1)N(Cc1cnc2c(=O)[nH]c(=O)[nH]c2c1)Cc1cccc(Cl)c1Cl [Compound 181] |

Further lines, the molecule ahead of its results:

| Compound | EC50 (full length human TREX1) [µM] | EC50 [1] [µM] |
| --- | --- | --- |
| O=C(CCCCc1ccccc1)N(Cc1cccnc1)Cc1ccc(Cl)cc1Cl [Compound 93] | > 10 | > 100 |
| O=C(c1cc(F)c(F)cc1F)N(Cc1cccnc1)Cc1ccc(Cl)cc1Cl [Compound 120] | > 10 | > 100 |
| COc1cccc(C(=O)N(Cc2cccnc2)Cc2cc(Cl)cc(Cl)c2)c1 [Compound 36] | > 10 | > 100 |
| COc1cc(C(=O)N(Cc2cccnc2)Cc2ccc(Cl)cc2Cl)cc(Br)c1OC [Compound 32] | > 10 | > 100 |
| O=C(C1CCOCC1)N(Cc1cccnc1)Cc1ccc(Cl)cc1Cl [Compound 89] | > 10 | > 100 |
| O=C(c1cccc(F)c1)N(Cc1cccnc1)[C@H](CO)c1ccc(Cl)cc1Cl (single isomer, unassigned) [Compound 162] | 0.1 to 1 | 10 to 100 |
| O=C(c1cccc(F)c1)N(Cc1cccnc1)Cc1ccccc1Cl [Compound 139] | 1 to 10 | > 100 |
| CNC(=O)c1ccc(CN(Cc2ccc(Cl)cc2Cl)C(=O)c2cccc(F)c2)cn1 [Compound 144, 5-({N-[(2,4-dichlorophenyl)methyl]-1-(3-fluorophenyl)formamido}methyl)-N-methylpyridine-2-carboxamide] | 1 to 10 | > 100 |
| O=C(O)c1ccc(CN(Cc2cccc(Cl)c2Cl)C(=O)c2cc(F)cc(F)c2)cn1 [Compound 148] | < 0.1 | < 1 |
| O=C(c1ncccn1)N(Cc1cccnc1)Cc1ccc(Cl)cc1Cl [Compound 102] | > 10 | > 100 |
| CC(C)Oc1ccc(C(=O)N(Cc2cccnc2)Cc2ccc(Cl)cc2Cl)cc1 [Compound 90] | > 10 | > 100 |
| CC(C)[C@H](c1ccc(Cl)cc1Cl)N(Cc1cccnc1)C(=O)c1cccc(F)c1 (single isomer, unassigned) [Compound 159] | 1 to 10 | 10 to 100 |
| NC(=O)c1ccc(CN(Cc2ccc(Cl)cc2Cl)C(=O)c2cccc(F)c2)cn1 [Compound 143, 5-({N-[(2,4-dichlorophenyl)methyl]-1-(3-fluorophenyl)formamido}methyl)pyridine-2-carboxamide] | > 10 | > 100 |
| C[C@H](c1ccc(C(N)=O)cc1Cl)N(Cc1cccnc1)C(=O)c1cccc(F)c1 (single isomer, unassigned) [Compound 163] | 0.1 to 1 | 10 to 100 |
| Cc1ncc(C(=O)N(Cc2cccnc2)Cc2ccc(Cl)cc2Cl)cn1 [Compound 104] | > 10 | > 100 |
| O=C(c1cccc(F)c1)N(CCc1ccccc1)Cc1cccnc1 [Compound 131] | > 10 | > 100 |
| O=C(c1cccc(F)c1)N(CCc1ccc(Cl)cc1Cl)Cc1cccnc1 [Compound 133] | > 10 | > 100 |
| O=C(c1ccc(CO)cc1)N(Cc1cccnc1)Cc1cc(Cl)cc(Cl)c1 [Compound 64] | > 10 | > 100 |
| O=C(c1cc(F)cc(F)c1)N(Cc1cccnc1)Cc1ccc(Cl)cc1Cl [Compound 121] | 0.1 to 1 | 10 to 100 |

| Compound | EC50 (full length human TREX1) [µM] | EC50 [1] [µM] |
| --- | --- | --- |
| Cc1cccc(CN(Cc2cccnc2)C(=O)c2cccc(F)c2)c1Cl [Compound 135] | 1 to 10 | 10 to 100 |
| O=C(c1ccc(O)c(F)c1)N(Cc1cccnc1)Cc1cc(Cl)cc(Cl)c1 [Compound 57] | > 10 | > 100 |
| Cc1nocc1C(=O)N(Cc1cccnc1)Cc1ccc(Cl)cc1Cl [Compound 140] | > 10 | > 100 |
| O=C(c1cccc(Oc2ccccc2)c1)N(Cc1cccnc1)Cc1ccc(Cl)cc1Cl [Compound 31] | > 10 | > 100 |
| C[C@@H](c1ccc(C(N)=O)cc1Cl)N(Cc1cccnc1)C(=O)c1cccc(F)c1 (single isomer, unassigned) [Compound 164] | > 10 | 10 to 100 |
| O=C(O)c1ccc(CN(Cc2ccccc2Cl)C(=O)c2cc(F)cc(F)c2)cn1 [Compound 152] | < 0.1 | 1 to 10 |
| O=C(c1cccc(-c2ccccc2)c1)N(Cc1cccnc1)Cc1ccc(Cl)cc1Cl [Compound 43] | > 10 | > 100 |
| O=C(c1ccon1)N(Cc1cccnc1)Cc1ccc(Cl)cc1Cl [Compound 118] | > 10 | > 100 |
| O=C(c1ccc(F)c(Br)c1)N(Cc1cccnc1)Cc1cc(Cl)cc(Cl)c1 [Compound 38] | > 10 | > 100 |
| CC[C@@H](c1cccc(OC)c1Cl)N(Cc1ccc(C(=O)O)nc1)C(=O)c1cc(F)cc(F)c1 [Compound 167] | < 0.1 | 1 to 10 |
| O=C(c1cccc(F)c1F)N(Cc1cccnc1)Cc1ccc(Cl)cc1Cl [Compound 124] | 1 to 10 | > 100 |
| COc1cc(C(=O)N(Cc2cccnc2)Cc2cc(Cl)cc(Cl)c2)cc(Cl)c1O [Compound 67] | > 10 | > 100 |
| O=C(c1cccc(Cl)c1)N(Cc1cccnc1)Cc1cc(Cl)cc(Cl)c1 [Compound 34] | > 10 | > 100 |
| O=C(c1ccc(Cl)cc1)N(Cc1cccnc1)Cc1cc(Cl)cc(Cl)c1 [Compound 29] | > 10 | > 100 |
| COc1cc(C(=O)N(Cc2cccnc2)Cc2cc(Cl)cc(Cl)c2)cc(Br)c1OC [Compound 47] | > 10 | > 100 |
| O=C(c1ccc(F)cn1)N(Cc1cccnc1)Cc1ccc(Cl)cc1Cl [Compound 99] | > 10 | > 100 |
| O=C(c1cccc(F)c1)N(Cc1cnc2ccccc2c1)Cc1ccc(Cl)cc1Cl [Compound 109] | > 10 | > 100 |
| O=C(c1cccc(F)c1)N(Cc1ccc(Cl)cc1)Cc1cccnc1 [Compound 138, N-[(4-chlorophenyl)methyl]-3-fluoro-N-[(pyridin-3-yl)methyl]benzamide] | > 10 | > 100 |
